The supplement of paper PMC6045584
± gives the standard deviation of the averaged measurements.

How the values were obtained:
[1] = compound: C[C@H](CN(C)C)Oc1nc(Nc2cc3cccc(Cl)c3cn2)cnc1C#N; assay: surviving fraction relative to DMSO-only wells; higher = less growth inhibition; conditions: exposure time: 5 days
Summary of the method: (§1)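 For each tumour cell line, log-phase cells were put into 384-well plates at 250–500 cells per well, then after 24 hours exposed continuously for five days to inhibitors at 0.5, 1, 5, 10, 50, 100, 500 and 1000 nM. Viability was assessed by CellTiter-Glo luminescence, with surviving fraction expressed relative to the median of DMSO-only wells. Lines were screened three times and retained only if replicate Pearson r exceeded 0.7 and median Z' exceeded 0.3.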

[2] = compound: COc1ccc(-c2cc3c(C)nc(N)nc3n([C@H]3CC[C@H](OCCO)CC3)c2=O)cn1; assay: as above; conditions: exposure time: 5 days
Summary of the method: as §1

SNU475 LIVER showed a surviving fraction ([1]; 0.5 nM) of 0.989 ± 0.036, a surviving fraction ([1]; 1 nM) of 1.03 ± 0.019 and a surviving fraction ([1]; 5 nM) of 1 ± 0.039. For the same test system, the surviving fraction ([1]; 10 nM) was 1.037 ± 0.005, the surviving fraction ([1]; 50 nM) was 1.02 ± 0.044 and the surviving fraction ([1]; 100 nM) was 0.972 ± 0.04. The surviving fraction ([1]; 500 nM) was 0.968 ± 0.024, the surviving fraction ([1]; 1000 nM) was 0.918 ± 0.024 and the surviving fraction ([2]; 0.5 nM) was 0.94 ± 0.013. It also gave a surviving fraction ([2]; 1 nM) of 0.951 ± 0.022, a surviving fraction ([2]; 5 nM) of 0.891 ± 0.041 and a surviving fraction ([2]; 10 nM) of 0.865 ± 0.012. The surviving fraction ([2]; 50 nM) was 0.625 ± 0.014, the surviving fraction ([2]; 100 nM) was 0.404 ± 0.036 and the surviving fraction ([2]; 500 nM) was 0.127 ± 0.0076. For the same test system, the surviving fraction ([2]; 1000 nM) was 0.0823 ± 0.0011.
MFM223 BREAST gave a surviving fraction ([1]; 0.5 nM) of 1.27 ± 0.17, a surviving fraction ([1]; 1 nM) of 1.09 ± 0.057 and a surviving fraction ([1]; 5 nM) of 1.15 ± 0.14. It also gave a surviving fraction ([1]; 10 nM) of 1.09 ± 0.094, a surviving fraction ([1]; 50 nM) of 1.08 ± 0.093 and a surviving fraction ([1]; 100 nM) of 1.14 ± 0.18. For the same test system, the surviving fraction ([1]; 500 nM) was 0.8 ± 0.048, the surviving fraction ([1]; 1000 nM) was 0.526 ± 0.17 and the surviving fraction ([2]; 0.5 nM) was 1.09 ± 0.086. It also gave a surviving fraction ([2]; 1 nM) of 1.1 ± 0.063, a surviving fraction ([2]; 5 nM) of 1.04 ± 0.061 and a surviving fraction ([2]; 10 nM) of 0.993 ± 0.079. For the same test system, the surviving fraction ([2]; 50 nM) was 0.674 ± 0.071, the surviving fraction ([2]; 100 nM) was 0.432 ± 0.016 and the surviving fraction ([2]; 500 nM) was 0.127 ± 0.012. The surviving fraction ([2]; 1000 nM) was 0.0725 ± 0.0048.
Test System MDAMB453 BREAST has a surviving fraction ([1]; 0.5 nM) of 1.04 ± 0.025, a surviving fraction ([1]; 1 nM) of 1.09 ± 0.063 and a surviving fraction ([1]; 5 nM) of 1.11 ± 0.058. The surviving fraction ([1]; 10 nM) was 1.06 ± 0.025, the surviving fraction ([1]; 50 nM) was 1.1 ± 0.051 and the surviving fraction ([1]; 100 nM) was 1.1 ± 0.056. It also gave a surviving fraction ([1]; 500 nM) of 0.596 ± 0.074, a surviving fraction ([1]; 1000 nM) of 0.273 ± 0.012 and a surviving fraction ([2]; 0.5 nM) of 1.08 ± 0.075. It also gave a surviving fraction ([2]; 1 nM) of 1.03 ± 0.078, a surviving fraction ([2]; 5 nM) of 1.05 ± 0.054 and a surviving fraction ([2]; 10 nM) of 1.06 ± 0.069. The surviving fraction ([2]; 50 nM) was 0.603 ± 0.051, the surviving fraction ([2]; 100 nM) was 0.312 ± 0.047 and the surviving fraction ([2]; 500 nM) was 0.0933 ± 0.0086. It also gave a surviving fraction ([2]; 1000 nM) of 0.0587 ± 0.016.
For JIMT1 BREAST, the surviving fraction ([1]; 0.5 nM) was 0.979 ± 0.019, the surviving fraction ([1]; 1 nM) was 0.966 ± 0.042 and the surviving fraction ([1]; 5 nM) was 1.03 ± 0.01. The surviving fraction ([1]; 10 nM) was 0.988 ± 0.043, the surviving fraction ([1]; 50 nM) was 0.916 ± 0.053 and the surviving fraction ([1]; 100 nM) was 0.467 ± 0.025. It also gave a surviving fraction ([1]; 500 nM) of 0.0688 ± 0.0064, a surviving fraction ([1]; 1000 nM) of 0.0615 ± 0.0039 and a surviving fraction ([2]; 0.5 nM) of 0.983 ± 0.03. The surviving fraction ([2]; 1 nM) was 0.961 ± 0.023, the surviving fraction ([2]; 5 nM) was 0.968 ± 0.011 and the surviving fraction ([2]; 10 nM) was 0.937 ± 0.024. For the same test system, the surviving fraction ([2]; 50 nM) was 0.857 ± 0.021, the surviving fraction ([2]; 100 nM) was 0.606 ± 0.022 and the surviving fraction ([2]; 500 nM) was 0.19 ± 0.0061. It also gave a surviving fraction ([2]; 1000 nM) of 0.114 ± 0.013.
Test System MHM BONE has a surviving fraction ([1]; 0.5 nM) of 1.02 ± 0.031, a surviving fraction ([1]; 1 nM) of 1.03 ± 0.012 and a surviving fraction ([1]; 5 nM) of 1.04 ± 0.026. It also gave a surviving fraction ([1]; 10 nM) of 1.07 ± 0.06, a surviving fraction ([1]; 50 nM) of 1.031 ± 0.0078 and a surviving fraction ([1]; 100 nM) of 1.05 ± 0.02. For the same test system, the surviving fraction ([1]; 500 nM) was 1.063 ± 0.0031, the surviving fraction ([1]; 1000 nM) was 0.999 ± 0.018 and the surviving fraction ([2]; 0.5 nM) was 0.999 ± 0.011. It also gave a surviving fraction ([2]; 1 nM) of 0.967 ± 0.013, a surviving fraction ([2]; 5 nM) of 0.99 ± 0.012 and a surviving fraction ([2]; 10 nM) of 0.957 ± 0.018. It also gave a surviving fraction ([2]; 50 nM) of 0.888 ± 0.029, a surviving fraction ([2]; 100 nM) of 0.823 ± 0.013 and a surviving fraction ([2]; 500 nM) of 0.478 ± 0.015. The surviving fraction ([2]; 1000 nM) was 0.29 ± 0.0046.
In the case of HOSMNG BONE, the surviving fraction ([1]; 0.5 nM) is reported as 0.943 ± 0.14, the surviving fraction ([1]; 1 nM) is reported as 0.937 ± 0.064 and the surviving fraction ([1]; 5 nM) is reported as 0.984 ± 0.072. The surviving fraction ([1]; 10 nM) was 0.964 ± 0.047, the surviving fraction ([1]; 50 nM) was 1.02 ± 0.072 and the surviving fraction ([1]; 100 nM) was 1.05 ± 0.079. For the same test system, the surviving fraction ([1]; 500 nM) was 0.983 ± 0.096, the surviving fraction ([1]; 1000 nM) was 0.0657 ± 0.0067 and the surviving fraction ([2]; 0.5 nM) was 1.03 ± 0.058. For the same test system, the surviving fraction ([2]; 1 nM) was 1.01 ± 0.087, the surviving fraction ([2]; 5 nM) was 1.04 ± 0.037 and the surviving fraction ([2]; 10 nM) was 0.947 ± 0.034. The surviving fraction ([2]; 50 nM) was 0.944 ± 0.082, the surviving fraction ([2]; 100 nM) was 0.81 ± 0.033 and the surviving fraction ([2]; 500 nM) was 0.348 ± 0.0079. The surviving fraction ([2]; 1000 nM) was 0.186 ± 0.0096.
Work on BT20 BREAST yielded a surviving fraction ([1]; 0.5 nM) of 1.14 ± 0.095, a surviving fraction ([1]; 1 nM) of 1.15 ± 0.081 and a surviving fraction ([1]; 5 nM) of 1.22 ± 0.083. It also gave a surviving fraction ([1]; 10 nM) of 1.14 ± 0.072, a surviving fraction ([1]; 50 nM) of 1.19 ± 0.093 and a surviving fraction ([1]; 100 nM) of 1.31 ± 0.072. The surviving fraction ([1]; 500 nM) was 1.35 ± 0.079, the surviving fraction ([1]; 1000 nM) was 1.21 ± 0.093 and the surviving fraction ([2]; 0.5 nM) was 1.13 ± 0.1. For the same test system, the surviving fraction ([2]; 1 nM) was 1.11 ± 0.097, the surviving fraction ([2]; 5 nM) was 1.12 ± 0.019 and the surviving fraction ([2]; 10 nM) was 1.09 ± 0.063. For the same test system, the surviving fraction ([2]; 50 nM) was 1 ± 0.048, the surviving fraction ([2]; 100 nM) was 0.72 ± 0.037 and the surviving fraction ([2]; 500 nM) was 0.216 ± 0.004. It also gave a surviving fraction ([2]; 1000 nM) of 0.141 ± 0.021.
CAL72 BONE was tested, and the surviving fraction ([1]; 0.5 nM) was 1.06 ± 0.1, the surviving fraction ([1]; 1 nM) was 1.08 ± 0.13 and the surviving fraction ([1]; 5 nM) was 1.06 ± 0.099. For the same test system, the surviving fraction ([1]; 10 nM) was 1.03 ± 0.12, the surviving fraction ([1]; 50 nM) was 1.09 ± 0.1 and the surviving fraction ([1]; 100 nM) was 0.981 ± 0.12. For the same test system, the surviving fraction ([1]; 500 nM) was 0.402 ± 0.076, the surviving fraction ([1]; 1000 nM) was 0.137 ± 0.037 and the surviving fraction ([2]; 0.5 nM) was 1.09 ± 0.055. The surviving fraction ([2]; 1 nM) was 1.06 ± 0.043, the surviving fraction ([2]; 5 nM) was 1.04 ± 0.043 and the surviving fraction ([2]; 10 nM) was 1.05 ± 0.027. It also gave a surviving fraction ([2]; 50 nM) of 0.993 ± 0.038, a surviving fraction ([2]; 100 nM) of 0.805 ± 0.045 and a surviving fraction ([2]; 500 nM) of 0.235 ± 0.014. For the same test system, the surviving fraction ([2]; 1000 nM) was 0.214 ± 0.031.
